Experimental data from ChEMBL document CHEMBL4483862, “Open-source discovery of chemical leads for next-generation chemoprotective antimalarials” (2018).

Test system: Plasmodium berghei
Test: Luciferase/luciferin-expressing antifolate-resistant parasites were used to infect a culture of HepG2 cells that were pre-incubated with compounds. Infected hepatocytes emit light due to the luciferase reaction. Assay results are presented as the percent inhibition of light emission compared to control. […]
Type: functional
Conditions: sporozoite; for IC90: read-out: LUCIFERASE INFECTION ASSAY - IC90
[1] = read-out: LUCIFERASE INFECTION ASSAY - IC50

| SMILES | IC90 [µM] | further results |
| --- | --- | --- |
| CN(C)c1ccc(-c2cc3c(cn2)nc(NCc2ccccc2F)n3C)cc1 | > 10 | IC50 (HEPG2TOX_HILL_SLOPE 12.8, HEPG2TOX_R_SQUARED 0.633, PBLUC_HILL_SLOPE 3.52, PBLUC_R_SQUARED 0.567, read-out: LUCIFERASE INFECTION ASSAY - IC50): 5.77 µM |
| CC(C)c1cc(NCc2ccccn2)n2ncc(-c3ccccc3)c2n1 | 3.94 | IC50 (PBLUC_HILL_SLOPE 12.5, PBLUC_R_SQUARED 0.318, read-out: LUCIFERASE INFECTION ASSAY - IC50): 3.3 µM |
| CN1C(=O)NC(c2ccccc2C(F)(F)F)C(C(=O)c2cccs2)C1(O)C(F)(F)F (stereo not drawn) | > 10 | IC50 [1]: > 10 µM |
| O=C(NC1CCSc2ccc(Cl)cc21)c1cc(Br)c[nH]1 (stereo not drawn) | > 10 | IC50 (FFLUC_HILL_SLOPE 30.3, FFLUC_R_SQUARED 0.512, PBLUC_HILL_SLOPE 1.67, PBLUC_R_SQUARED 0.28, read-out: LUCIFERASE INFECTION ASSAY - IC50): 5.71 µM |
| CC(C)c1ccc2c(ccc[n+]2C)c1 | > 10.5 | IC50 (PBLUC_HILL_SLOPE 4.53, PBLUC_R_SQUARED 0.451, read-out: LUCIFERASE INFECTION ASSAY - IC50): 8.36 µM |
| Cc1cc(NCc2ccccn2)n2nc(C)c(-c3ccccc3Cl)c2n1 | 5.5 | IC50 (HEPG2TOX_HILL_SLOPE 4.48, HEPG2TOX_R_SQUARED 0.152, PBLUC_HILL_SLOPE 2.08, PBLUC_R_SQUARED 0.431, read-out: LUCIFERASE INFECTION ASSAY - IC50): 1.91 µM |
| CCc1ccc(CN2CCc3c(c(C(=O)N4CCCC(O)C4)nn3Cc3cccc(OC)c3)C2)cc1 (stereo not drawn) | > 6.75 | IC50 (PBLUC_HILL_SLOPE 17.4, PBLUC_R_SQUARED 0.568, read-out: LUCIFERASE INFECTION ASSAY - IC50): 6.43 µM |
| Cc1cnc(NC(=O)c2ccc(Cl)c(S(=O)(=O)N(Cc3ccccc3)c3ccccc3Cl)c2)s1 | > 10 | IC50 [1]: > 10 µM |
| O=C(Nc1cccc(S(=O)(=O)NC2CC2)c1)c1cc(-c2ccccc2)nn1-c1ccccc1 | > 10 | IC50 (HEPG2TOX_HILL_SLOPE 3.71, HEPG2TOX_R_SQUARED 0.26, read-out: LUCIFERASE INFECTION ASSAY - IC50): > 10 µM |
| O=C(CN1CCN(C(=O)C23CC4CC(CC(C4)C2)C3)CC1)c1ccc[nH]1 | > 10 | IC50 [1]: > 10 µM |
| N#Cc1c(F)ccc(NC(=O)Nc2ccc(Cl)cc2)c1F | > 10.7 | IC50 (PBLUC_HILL_SLOPE 14.7, PBLUC_R_SQUARED 0.232, read-out: LUCIFERASE INFECTION ASSAY - IC50): 10.6 µM |
| Cn1ccc2cc(-c3cn4c(-c5cccc(CO)c5)cnc4cn3)ccc21 | 1.22 | IC50 (HEPG2TOX_HILL_SLOPE 0.928, HEPG2TOX_R_SQUARED 0.91, PBLUC_HILL_SLOPE 2.22, PBLUC_R_SQUARED 0.697, read-out: LUCIFERASE INFECTION ASSAY - IC50): 0.452 µM |
| COc1cccc(-n2c(=O)c3ccccc3n3c(SCc4cc(=O)n5ccsc5n4)nnc23)c1 | > 10 | IC50 [1]: > 10 µM |
| CSc1ncc2c(n1)CC(C)(C)C/C2=N\OC(=O)c1cccc(C(F)(F)F)c1 | > 8.06 | IC50 [1]: > 8.06 µM |
| Cc1nc(-c2ccc(C(C)Nc3cnn(-c4ccccc4)c(=O)c3Cl)cc2)cs1 (stereo not drawn) | 5.07 | IC50 (HEPG2TOX_HILL_SLOPE 2.7, HEPG2TOX_R_SQUARED 0.839, PBLUC_HILL_SLOPE 8.17, PBLUC_R_SQUARED 0.802, read-out: LUCIFERASE INFECTION ASSAY - IC50): 3.88 µM |
| Cc1cc(NC(=O)c2ccc(CN3CCN(C/C=C/c4ccccc4)CC3)cc2)ccc1Cl | > 10 | IC50 (HEPG2TOX_HILL_SLOPE 1.44, HEPG2TOX_R_SQUARED 0.929, PBLUC_HILL_SLOPE 2.64, PBLUC_R_SQUARED 0.29, read-out: LUCIFERASE INFECTION ASSAY - IC50): 4.99 µM |
| C=CCn1c(-c2ccc(Cl)cc2Cl)csc1=Nc1ccc(NC(C)=O)cc1 | 6.44 | IC50 (PBLUC_HILL_SLOPE 2.47, PBLUC_R_SQUARED 0.472, read-out: LUCIFERASE INFECTION ASSAY - IC50): 2.64 µM |

| SMILES | IC90 [µM] | further results |
| --- | --- | --- |
| O=C(Nc1cc(Cl)ccc1O)c1ccccc1CSc1ccc(Cl)cc1 | 7.79 | IC50 (HEPG2TOX_HILL_SLOPE 7.65, HEPG2TOX_R_SQUARED 0.733, PBLUC_HILL_SLOPE 11.9, PBLUC_R_SQUARED 0.0529, read-out: LUCIFERASE INFECTION ASSAY - IC50): 6.47 µM |
| NC(Cc1ccc(F)cc1)c1csc(Nc2ccc(C(F)(F)F)cn2)n1 (stereo not drawn) | 5.98 | IC50 (PBLUC_HILL_SLOPE 202, PBLUC_R_SQUARED 0.785, read-out: LUCIFERASE INFECTION ASSAY - IC50): 5.91 µM |
| O=C(NCc1ccc(Cn2ccnc2)cc1)c1csc(-c2cccs2)n1 | > 10 | IC50 (PBLUC_HILL_SLOPE 1.64, PBLUC_R_SQUARED 0.565, read-out: LUCIFERASE INFECTION ASSAY - IC50): 6.98 µM |
| CC(C(=O)Nc1cc([N+](=O)[O-])ccc1Cl)N(C)CC(=O)Nc1ccc(Cl)c(C(F)(F)F)c1 (stereo not drawn) | > 10 | IC50 (HEPG2TOX_HILL_SLOPE 0.377, HEPG2TOX_R_SQUARED 0.303, read-out: LUCIFERASE INFECTION ASSAY - IC50): > 10 µM |
| N#Cc1ccccc1COc1ccccc1-c1ccccc1 | > 10 | IC50 (PBLUC_HILL_SLOPE 3.31, PBLUC_R_SQUARED 0.0977, read-out: LUCIFERASE INFECTION ASSAY - IC50): 7.89 µM |
| OC(COc1ccc2cc(Br)ccc2c1)CN1CCCC1 (stereo not drawn) | > 9.42 | IC50 (FFLUC_HILL_SLOPE 1.55, FFLUC_R_SQUARED 0.115, PBLUC_HILL_SLOPE 1.17, PBLUC_R_SQUARED 0.42, read-out: LUCIFERASE INFECTION ASSAY - IC50): 4.73 µM |
| COc1ccccc1N(CCC#N)C(=O)COC(=O)/C=C/c1ccc(OC(F)F)cc1 | > 10 | IC50 [1]: > 10 µM |
| CN(CCCc1[nH]nc(N)c1C#N)c1nc(-c2ccccn2)nc2sc(-c3ccccc3)cc12 | > 10 | IC50 (PBLUC_HILL_SLOPE 13.8, PBLUC_R_SQUARED 0.648, read-out: LUCIFERASE INFECTION ASSAY - IC50): 8.54 µM |
| Cc1cccc(C)c1Nc1nnc(C(O)c2ccc(F)c(Cl)c2)s1 (stereo not drawn) | > 10 | IC50 (PBLUC_HILL_SLOPE 1.46, PBLUC_R_SQUARED 0.342, read-out: LUCIFERASE INFECTION ASSAY - IC50): 2.96 µM |
| Cc1cccc(Cn2nc(C(C)(C)C)cc2C(=O)Nc2cccc(OC(F)(F)F)c2)c1 | > 7.65 | IC50 (PBLUC_HILL_SLOPE 1.23, PBLUC_R_SQUARED 0.161, read-out: LUCIFERASE INFECTION ASSAY - IC50): > 7.65 µM |
| Oc1cccc(-c2cnc3cnc(-c4ccco4)cn23)c1 | > 11.9 | IC50 (HEPG2TOX_HILL_SLOPE 0.436, HEPG2TOX_R_SQUARED 0.582, PBLUC_HILL_SLOPE 2.53, PBLUC_R_SQUARED 0.573, read-out: LUCIFERASE INFECTION ASSAY - IC50): 6.72 µM |
| COc1ccc(CNC(=O)c2ccc3c(c2)NC(=O)C(C)S3)cc1OC (stereo not drawn) | > 10 | IC50 [1]: > 10 µM |
| Cc1cc(C(=O)/C(C#N)=N/Nc2cccc(Cl)c2)n(C(C)(C)C)n1 | > 9.6 | IC50 (HEPG2TOX_HILL_SLOPE 1.25, HEPG2TOX_R_SQUARED 0.973, PBLUC_HILL_SLOPE 1.27, PBLUC_R_SQUARED 0.674, read-out: LUCIFERASE INFECTION ASSAY - IC50): 3.49 µM |
| Cc1ccc(/N=C/c2cc3ccccc3nc2Sc2ccc(C)cc2)cc1 | > 10 | IC50 [1]: > 10 µM |
| CC1CCN(C(=O)c2csc(-c3ccco3)n2)c2ccccc2S1 (stereo not drawn) | 7.59 | IC50 (PBLUC_HILL_SLOPE 1.74, PBLUC_R_SQUARED 0.579, read-out: LUCIFERASE INFECTION ASSAY - IC50): 2.14 µM |
| FC(F)(F)Oc1ccc(-c2ccc(OCc3ccccn3)nc2)cc1 | > 9.53 | IC50 (HEPG2TOX_HILL_SLOPE 9.63, HEPG2TOX_R_SQUARED 0.944, read-out: LUCIFERASE INFECTION ASSAY - IC50): > 9.53 µM |
| COc1cc(OC)c(C(=O)N2CC=C(c3c[nH]c4ccccc34)CC2)cc1OC | > 10 | IC50 [1]: > 10 µM |
